Measurements taken from PMC4718634, “Murine GPRC6A Mediates Cellular Responses to L-Amino Acids, but Not Osteocalcin Variants” (PLoS ONE, 2016).
Entries after “also recorded” stand apart in the source; their conditions may differ.

How the values were obtained:
[1] = system: non-tetracycline induced or parental HEK293 cells; experiment: Inositol phosphate accumulation, parental or non-tetracycline-induced HEK293 cells; conditions: G protein-transfected parental HEK293 or non-tetracycline-induced cells; Fig 1B
[2] = system: un-induced FlpIn-TREx-HEK293-mGPRC6A cells; experiment: Label-free cell impedance, un-induced FlpIn-TREx-HEK293-mGPRC6A cells; type: cell-based; conditions: Fig 4
Method: 2.5 x 10^7 FlpIn-TREx-HEK293-mGPRC6A cells were seeded in a T175 flask and incubated overnight at 37°C in 5% CO2. Cells were then transfected with 35 μg of plasmid DNA (GαqG66D) with Lipofectamine LTX according to manufacturer's instructions, then incubated for 24h at 37°C in 5% CO2. Prior to the experiment, a background reading for each E-plate 96 (Bio-Rad, CA, USA) was measured after addition of 100 μl DMEM + 10% FBS per well. Cells were recovered using Versene and seeded at a 10^5 cells/well density in 200 μl DMEM + 10% FBS (containing 1 μg/ml tetracycline where indicated). Cells were washed 2 x 2 h in HBSS buffer (pH 7.2) containing 20 mM HEPES, 1 mM CaCl2 and 0.1% BSA (w/v) in a total volume of 180 μl. Test compounds (20 μl at 10x final concentration) were added to the plate and cell impedance was monitored for 3 h. Cell index was normalised to the buffer response (minus the baseline response at zero time point).

22RV1 / PC-3 = conditions: endogenous; ref [9] (supplement list); cited from earlier work
From the text: Supplement pone.0146846.s004.docx, table 1 | column: Functional assay

mouse pancreatic islets = experiment: Insulin release from mouse pancreatic islets; type: cell-based; conditions: OCN 0.03–100 ng/ml; both glucose concentrations; 90 min; n = 2; S3 Fig B
Method: Islets were collagenase-isolated from mice (10 x C57Bl/6; 12–13 weeks; Charles River) and incubated overnight in RPMI (with 10% FBS (v/v), 10 mM HEPES, 100 U/ml penicillin, 100 μg/ml streptomycin, sodium pyruvate and 10 mM glucose) at 37°C in 5% CO2. Islets were seeded into a 96-well plate (4 / well) in Kreb’s buffer containing 2.8 mM glucose and washed twice with the same buffer. 200 μl test drugs were added in Kreb’s buffer with the required concentration of glucose and incubated at 37°C in 5% CO2 for 90 min. The plate was centrifuged for 10 s at 200 g, supernatant recovered and insulin levels detected as described above. This protocol was approved by the IDRS (Institut de Recherches Servier) Institutional Animal Care and Use Committee.
Concentration-response data were analysed using a three or four parameter logistic function (Motulsky & Christopoulos, 2004) to generate estimates of agonist potency (LogEC50). Data for all HEK293 assays represent the mean ± SEM of at least three independent experiments (except cell impedance, n = 2). For GLP-1 release, the data represent mean ± SEM of three to five independent experiments (except for OCN, wash; n = 2). For insulin release assays, data represent the mean ± SEM of three independent experiments (except for islet studies; n = 2). Insulin release data were normalised to the response to vehicle in either low or high [glucose]. Statistical analysis for GLP-1 release data were performed by one-way ANOVA, followed by Sidak’s multiple comparisons test (treating wash / no wash datasets separately). Statistical analyses for insulin release data were performed by two-way ANOVA (with [glucose] and drug treatment as group variables), followed by Sidak’s multiple comparisons test. Where only high [glucose] groups were evaluated, statistical analysis was by one-way ANOVA followed by Sidak’s multiple comparisons test.

pancreatic islets = conditions: GPRC6A-dependent; ref [31]; cited from earlier work
From the text: (§1) Given the range of OCN variants profiled, we propose that species and/or carboxylation status is unlikely to be a cause of the lack of activity in our assays. Other potential explanations are that the species of GPRC6A is critical or that HEK293 cells lack the necessary scaffolding and/or signalling proteins found in cells endogenously expressing GPRC6A. Unfortunately, human GPRC6A was not expressed at the cell surface in our cells, precluding a study of its pharmacology. However, we identified a range of immortalised murine entero-endocrine and pancreatic β-cell lines that express Gprc6a mRNA ...

βTC-6 cells = conditions: GPRC6A-dependent; ref [12]; cited from earlier work
From the text: as §1

Row | Molecule | inositol phosphate response in non-expressing cells [1] | cell impedance (cell index) response [2] | PSA, Runx2 expression response (22RV1 / PC-3) | Proliferation response (22RV1 / PC-3) | pERK1/2 response (22RV1 / PC-3) | insulin secretion, OCN (mouse pancreatic islets) | insulin secretion (pancreatic islets) | ERK1/2 phosphorylation (βTC-6 cells)
1 | NCCC[C@H](N)C(=O)O [L-ornithine] | absent in non-tetracycline induced or parental HEK293 cells | only mGPRC6A-expressing cells responded to L-ornithine; also recorded: increases cellular impedance only in tetracycline-induced cells |  |  |  |  |  | 
2 | OCN: osteoblast-derived peptide, osteocalcin; variant not specified at the place (YLYQWLGAPVPYPDPLEPRREVCELNPDCDELADHIGFQEAYRRFYGPV; UniProt P02818 52-100, looked up) |  |  | pERK1/2 – response to Ca^2+, ZnCl2, OCN, Arginine, Testosterone-BSA Proliferation – response to Ca^2+, OCN PSA, Runx2 expression – response to OCN, Arg, R1881 Chemotaxis (22RV1) – response to Ca^2+, OCN | pERK1/2 – response to Ca^2+, ZnCl2, OCN, Arginine, Testosterone-BSA Proliferation – response to Ca^2+, OCN PSA, Runx2 expression – response to OCN, Arg, R1881 Chemotaxis (22RV1) – response to Ca^2+, OCN | pERK1/2 – response to Ca^2+, ZnCl2, OCN, Arginine, Testosterone-BSA Proliferation – response to Ca^2+, OCN PSA, Runx2 expression – response to OCN, Arg, R1881 Chemotaxis (22RV1) – response to Ca^2+, OCN | no effect on insulin release; also recorded: failed to induce GSIS | increase insulin secretion from pancreatic islets | engender ERK1/2 phosphorylation
